Assays:
[1] = molecular target: Sodium channel protein type 5 subunit alpha (Homo sapiens, UniProt Q14524); assay: Inhibition of sodium channel blockade in CHO cells expressing human cardiac (hHI) sodium channel; type: cell-based
[2] = molecular target: Sodium channel protein type 2 subunit alpha (Homo sapiens, UniProt Q99250); assay: Inhibition of sodium channel blockade in CHO cells expressing neuronal mammalian type IIA (CNaIIA) sodium channel; type: cell-based
Mus musculus = assay: In vivo anticonvulsant activity tested as percent inhibition of audiogenic antiseizure in DBA/2 mice at a dose of 20 mg/kg, ip; type: functional; details: route intraperitoneal
[3] = pKa value determined; type: physicochemical
[4] = Partition coefficient (logD); type: physicochemical; details: octanol/water

Sodium channel protein type 2 subunit alpha, sequence (Q99250 whole entry): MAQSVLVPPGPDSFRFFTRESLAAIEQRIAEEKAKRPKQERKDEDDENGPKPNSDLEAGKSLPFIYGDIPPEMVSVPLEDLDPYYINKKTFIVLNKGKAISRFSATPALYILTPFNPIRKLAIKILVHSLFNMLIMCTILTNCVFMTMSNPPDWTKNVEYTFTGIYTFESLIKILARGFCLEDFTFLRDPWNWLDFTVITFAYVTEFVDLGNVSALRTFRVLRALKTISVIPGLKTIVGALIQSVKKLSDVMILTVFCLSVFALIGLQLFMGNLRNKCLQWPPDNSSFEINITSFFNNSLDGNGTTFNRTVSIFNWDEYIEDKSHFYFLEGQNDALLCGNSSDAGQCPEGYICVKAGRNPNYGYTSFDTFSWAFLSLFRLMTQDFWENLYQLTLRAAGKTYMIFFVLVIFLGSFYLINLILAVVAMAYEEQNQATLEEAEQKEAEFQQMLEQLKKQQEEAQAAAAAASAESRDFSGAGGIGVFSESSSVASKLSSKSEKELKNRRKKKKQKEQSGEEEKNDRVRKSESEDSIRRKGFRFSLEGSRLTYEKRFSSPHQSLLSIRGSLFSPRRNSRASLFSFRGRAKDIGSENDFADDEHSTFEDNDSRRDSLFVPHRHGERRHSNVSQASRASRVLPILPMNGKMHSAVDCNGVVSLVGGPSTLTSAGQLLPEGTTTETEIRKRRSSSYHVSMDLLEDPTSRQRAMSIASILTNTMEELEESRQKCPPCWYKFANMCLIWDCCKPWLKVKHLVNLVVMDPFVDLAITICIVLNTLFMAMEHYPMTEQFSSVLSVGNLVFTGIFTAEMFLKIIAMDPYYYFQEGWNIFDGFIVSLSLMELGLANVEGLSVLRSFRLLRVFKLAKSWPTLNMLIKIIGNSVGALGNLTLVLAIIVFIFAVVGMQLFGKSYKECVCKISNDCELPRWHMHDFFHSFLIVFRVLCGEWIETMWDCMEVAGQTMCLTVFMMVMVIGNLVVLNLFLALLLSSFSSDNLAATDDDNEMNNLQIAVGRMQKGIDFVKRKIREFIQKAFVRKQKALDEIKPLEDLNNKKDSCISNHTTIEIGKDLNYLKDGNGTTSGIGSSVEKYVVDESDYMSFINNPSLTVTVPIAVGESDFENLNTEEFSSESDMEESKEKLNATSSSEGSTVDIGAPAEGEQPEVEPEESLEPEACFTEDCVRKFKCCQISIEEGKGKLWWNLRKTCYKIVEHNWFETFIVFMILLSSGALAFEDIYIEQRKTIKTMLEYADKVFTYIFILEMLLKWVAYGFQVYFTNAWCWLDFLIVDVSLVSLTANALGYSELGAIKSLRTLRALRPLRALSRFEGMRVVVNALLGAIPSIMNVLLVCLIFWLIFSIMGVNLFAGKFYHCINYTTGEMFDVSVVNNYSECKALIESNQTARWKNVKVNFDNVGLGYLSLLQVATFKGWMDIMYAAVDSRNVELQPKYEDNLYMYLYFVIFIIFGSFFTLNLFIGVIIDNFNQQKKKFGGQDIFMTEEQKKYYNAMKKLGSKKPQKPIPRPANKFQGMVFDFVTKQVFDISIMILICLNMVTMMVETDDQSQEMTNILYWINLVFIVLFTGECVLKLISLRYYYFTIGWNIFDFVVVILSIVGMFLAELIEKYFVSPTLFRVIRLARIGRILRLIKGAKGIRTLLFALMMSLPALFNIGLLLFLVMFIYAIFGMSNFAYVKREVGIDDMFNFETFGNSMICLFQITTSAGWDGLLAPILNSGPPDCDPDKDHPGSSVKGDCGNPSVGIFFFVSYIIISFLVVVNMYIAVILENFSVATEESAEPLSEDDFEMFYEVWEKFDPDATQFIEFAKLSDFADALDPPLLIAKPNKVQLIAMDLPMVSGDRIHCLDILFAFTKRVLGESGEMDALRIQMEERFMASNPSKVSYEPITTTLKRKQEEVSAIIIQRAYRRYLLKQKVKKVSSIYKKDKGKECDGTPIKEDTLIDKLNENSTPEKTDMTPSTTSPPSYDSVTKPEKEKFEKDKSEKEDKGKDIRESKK
Sodium channel protein type 5 subunit alpha, sequence (Q14524 whole entry): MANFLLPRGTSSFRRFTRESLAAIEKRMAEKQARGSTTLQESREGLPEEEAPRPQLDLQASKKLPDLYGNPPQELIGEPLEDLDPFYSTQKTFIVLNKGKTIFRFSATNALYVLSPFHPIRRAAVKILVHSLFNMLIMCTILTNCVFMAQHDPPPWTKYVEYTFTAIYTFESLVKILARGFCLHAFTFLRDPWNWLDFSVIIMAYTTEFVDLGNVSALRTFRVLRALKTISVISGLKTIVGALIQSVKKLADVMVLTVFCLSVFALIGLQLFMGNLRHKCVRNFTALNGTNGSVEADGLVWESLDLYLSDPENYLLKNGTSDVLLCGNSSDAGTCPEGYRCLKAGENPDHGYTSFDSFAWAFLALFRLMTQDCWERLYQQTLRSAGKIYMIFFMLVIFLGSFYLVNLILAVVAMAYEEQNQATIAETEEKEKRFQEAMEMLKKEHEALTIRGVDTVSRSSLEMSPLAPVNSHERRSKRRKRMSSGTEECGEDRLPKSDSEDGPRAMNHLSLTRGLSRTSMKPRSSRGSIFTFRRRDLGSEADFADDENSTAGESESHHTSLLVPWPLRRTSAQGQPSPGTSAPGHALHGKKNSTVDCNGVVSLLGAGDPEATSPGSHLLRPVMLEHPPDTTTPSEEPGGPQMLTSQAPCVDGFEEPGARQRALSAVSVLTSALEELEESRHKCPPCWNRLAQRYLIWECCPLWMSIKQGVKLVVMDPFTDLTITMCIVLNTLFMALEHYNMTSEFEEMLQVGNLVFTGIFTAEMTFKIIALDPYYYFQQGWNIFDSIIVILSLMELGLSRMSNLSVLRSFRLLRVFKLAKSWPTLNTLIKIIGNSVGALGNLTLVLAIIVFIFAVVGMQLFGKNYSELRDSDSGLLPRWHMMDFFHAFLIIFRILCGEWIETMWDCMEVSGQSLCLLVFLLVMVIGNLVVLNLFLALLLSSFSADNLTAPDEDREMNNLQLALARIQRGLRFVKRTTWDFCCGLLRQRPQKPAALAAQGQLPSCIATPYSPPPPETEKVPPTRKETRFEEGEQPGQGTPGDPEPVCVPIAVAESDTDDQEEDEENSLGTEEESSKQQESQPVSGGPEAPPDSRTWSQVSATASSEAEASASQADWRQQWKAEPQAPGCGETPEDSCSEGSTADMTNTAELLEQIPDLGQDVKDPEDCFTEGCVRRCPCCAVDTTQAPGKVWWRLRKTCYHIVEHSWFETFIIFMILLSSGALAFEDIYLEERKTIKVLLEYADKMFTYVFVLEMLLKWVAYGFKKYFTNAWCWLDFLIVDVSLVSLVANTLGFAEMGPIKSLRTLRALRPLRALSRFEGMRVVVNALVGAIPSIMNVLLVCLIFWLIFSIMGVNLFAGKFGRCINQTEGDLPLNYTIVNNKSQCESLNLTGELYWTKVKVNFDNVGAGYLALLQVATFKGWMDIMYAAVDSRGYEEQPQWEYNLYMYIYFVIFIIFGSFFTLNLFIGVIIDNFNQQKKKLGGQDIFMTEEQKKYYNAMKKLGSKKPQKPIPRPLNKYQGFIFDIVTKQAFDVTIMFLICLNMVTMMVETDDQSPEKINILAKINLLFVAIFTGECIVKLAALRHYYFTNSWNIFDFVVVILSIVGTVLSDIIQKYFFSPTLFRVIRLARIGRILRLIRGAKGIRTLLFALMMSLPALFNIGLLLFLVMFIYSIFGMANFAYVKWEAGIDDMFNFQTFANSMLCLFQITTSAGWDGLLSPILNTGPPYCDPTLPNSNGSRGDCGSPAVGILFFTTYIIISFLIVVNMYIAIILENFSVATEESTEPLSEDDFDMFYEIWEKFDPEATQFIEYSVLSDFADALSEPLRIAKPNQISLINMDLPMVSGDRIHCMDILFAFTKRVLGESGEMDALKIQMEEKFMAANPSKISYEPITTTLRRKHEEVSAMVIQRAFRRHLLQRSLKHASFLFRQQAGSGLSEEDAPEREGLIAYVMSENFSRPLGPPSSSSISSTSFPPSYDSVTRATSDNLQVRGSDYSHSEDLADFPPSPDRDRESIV

| Compound | IC50 [1] | IC50 [2] | inhibition in vivo at 20 mg/kg (Mus musculus) | pKa [3] | logD [4] |
| --- | --- | --- | --- | --- | --- |
| COc1cc(C(=O)NC(N)=NCCCCc2ccccc2)cc(OC)c1OC | 1.51 µM | 1.39 µM |  |  |  |
| Cc1ccc(C(=O)NC(=N)N2CCc3ccccc32)cc1 | > 100 µM | 8.81 µM | 16% |  |  |
| N=C(N)NC(=O)c1ccccc1 |  |  |  | 6.98 |  |
| CCCC/N=C(/N)NC(=O)c1ccc(C)cc1 | 9 µM | 17.4 µM |  |  |  |
| Cc1ccc(C(=O)NC(N)=NCCSCc2ccccc2)cc1 | 10.8 µM | 3.9 µM |  |  |  |
| CCOc1ccc(C(=O)NC(N)=NCCCCc2ccccc2)cc1 | 1.1 µM | 0.76 µM | 60% |  |  |
| Cc1ccc(C(=O)NC(N)=NCc2ccccc2)cc1 |  | 3.87 µM |  |  |  |
| COc1ccc2[nH]cc(CCN=C(N)NC(=O)c3ccc(C)cc3)c2c1 | 1.76 µM | 1.76 µM |  |  |  |
| Cc1ccc(C(=O)NC(=N)Nc2cccc3ccccc23)cc1 |  | 3.29 µM |  |  |  |
| Cc1ccc(C(=O)NC(N)=NCCOc2ccccc2)cc1 | 14.2 µM | 3.23 µM |  |  |  |
| COc1cc(NC(=N)NC(=O)c2ccc(C)cc2)cc(OC)c1OC | 24.4 µM | 1.92 µM |  |  |  |
| Cc1ccc(C(=O)N/C(N)=N\c2ccccc2C(C)C)cc1 | 4.5 µM | 4.36 µM |  |  |  |
| Cc1ccc(C(=O)NC(N)=NCCCOc2ccccc2)cc1 | 5.6 µM | 2.67 µM | 54% |  |  |
| Cc1ccc(C(=O)NC(=N)Nc2ccc(C(C)C)cc2)cc1 | 19.7 µM | 1.95 µM | 30% | 6.35 | 4.4 |
| CCCCOc1ccc(C(=O)NC(N)=NCCCCc2ccccc2)cc1 | 0.56 µM | 0.63 µM | 97% |  |  |
| NC(=NCCCCc1ccccc1)NC(=O)c1c(Cl)cccc1Cl | 5.4 µM | 5.03 µM |  |  |  |
| CN=C(NCCCCc1ccccc1)NC(=O)c1ccc(C)cc1 | 9 µM | 4.16 µM |  |  |  |
| NC(=NCCCCc1ccccc1)NC(=O)c1ccco1 | 7.9 µM | 13.8 µM | 5% |  |  |
| Cc1ccc(C(=O)NC(=N)Nc2ccc(OCc3ccccc3)cc2)cc1 |  | 10.1 µM |  |  |  |
| Cc1ccc(C(=O)NC(=N)N(C)Sc2cccc(C)c2)cc1 |  | 5.44 µM |  |  |  |
| COc1ccc(C(=O)NC(=N)NCCCCc2ccccc2)cc1 | 2.1 µM | 0.82 µM | 42% |  |  |
| N=C(N)Nc1ccccc1 [PHENYLGUANIDINE] |  |  |  | 10.8 |  |

| Compound | IC50 [1] | IC50 [2] | inhibition in vivo at 20 mg/kg (Mus musculus) | pKa [3] | logD [4] |
| --- | --- | --- | --- | --- | --- |
| Cc1ccc(C(=O)NC(N)=NCCCN(C)C)cc1 |  | > 25 µM |  |  |  |
| NC(=NCCCCc1ccccc1)NC(=O)c1cc(Cl)ccc1Cl | 7.89 µM | 3.25 µM |  |  |  |
| Cc1ccccc1C(=O)NC(N)=NCCCCc1ccccc1 | 1.75 µM | 1.2 µM | 53% |  |  |
| COc1cccc2[nH]cc(CCN=C(N)NC(=O)c3ccc(C)cc3)c12 | 3.92 µM | 3.35 µM |  |  |  |
| N=C(N)N [GUANIDINE] |  |  |  | 12.6 |  |
| NC(=NCCCCc1ccccc1)NC(=O)c1cccc(Cl)c1Cl | 2.71 µM | 1.48 µM |  |  |  |
| NC(=NCCCCc1ccccc1)NC(=O)c1cccc2ccccc12 | 4.1 µM | 0.86 µM | 9% |  |  |
| N=C(NCCCCc1ccccc1)NC(=O)c1cccs1 | 2.35 µM | 4.31 µM |  |  |  |
| Cc1ccc(C(=O)NC(=N)NCCCCCc2ccccc2)cc1 | 3.6 µM | 2.11 µM | 7% |  |  |
| Cc1ccc(C(=O)NC(N)=NCc2cccc3ccccc23)cc1 | 8.85 µM | 2.38 µM |  |  |  |
| Cc1ccc(C(=O)NC(=N)N(C)c2cccc(I)c2)cc1 |  | 9.45 µM |  |  |  |
| Cc1ccc(C(=O)NC(N)=NCCc2ccc(Cl)cc2)cc1 | 8.5 µM | 1.97 µM |  |  |  |
| NC(=NCCCCc1ccccc1)NC(=O)c1ccc(Cl)cc1 | 3.6 µM | 4.3 µM |  |  |  |
| NC(=NCCCCc1ccccc1)NC(=O)c1ccc(Cl)c(Cl)c1 | 15.5 µM | 7.11 µM |  |  |  |
| Cc1ccc(C(=O)NC(=N)Nc2ccc(OC(C)C)cc2)cc1 | 5.75 µM | 2.02 µM |  |  |  |
| Cc1ccc(C(=O)NC(=N)N2CCCc3ccc(C(F)(F)F)cc32)cc1 |  | > 25 µM |  |  |  |
| Cc1ccc(C(=O)NC(N)=Nc2cc(Br)ccc2Br)cc1 |  | > 25 µM |  |  |  |
| Cc1ccc(C(=O)NC(=N)NCCCc2ccccc2)cc1 | 5.25 µM | 6.03 µM |  |  |  |
| Cc1ccc(C(=O)NC(=N)NCCc2cccs2)cc1 | 10.5 µM | 4.95 µM |  |  |  |
| Cc1ccc(C(=O)NC(N)=NCCc2ccccc2)cc1 | 5.65 µM | 2.66 µM |  |  |  |
| Cc1ccc(C(=O)NC(=N)Nc2ccc(C(C)(C)C)cc2)cc1 |  | > 24 µM |  |  |  |
| Cc1ccc(C(=O)NC(=N)NCCCCc2ccccc2)cc1 | 2.85 µM | 1.14 µM | 75% | 7.09 |  |
